Measured values published in patent US20200054589A1, “COMBINATION OF A PPAR AGONIST WITH A FXR AGONIST” (Genfit, priority 2017, published 2020).

Columns and labels:
[1] = tested on: TGFβ1-induced human primary hepatic stellate cells (hHSC), α-SMA; experiment: α-SMA ELISA in TGFβ1-activated hHSC (in vitro model of hepatic fibrogenesis), synergy by Excess Over Bliss; format: cell-based; settings: TGFβ1 1 ng/ml, 48 h
Procedure: The human primary hepatic stellate cells (hHSC) (Innoprot) were cultured in STeCM medium (ScienCell cat #5301) supplemented with 2% fetal bovine serum (FBS, ScienCell cat #0010), 1% penicillin/streptomycin (ScienCell cat #0503) and stellate cell growth supplement (SteCGS; ScienCell cat #5352). Cell-culture flasks were coated with Poly-L Lysine (Sigma cat # P4707) for a better adherence.
The FXR agonist INT-767 (CAS #1000403-03-1, Cat # HY-12434, batch #19249) was obtained commercially from Haoyuan Chemexpress. For these experiments, a checkerboard matrix was generated. […]
The level of α-SMA was measured using a Sandwich ELISA. […]
The values obtained in the αSMA ELISA assays were first transformed into percentage inhibitions over TGF-β1 control. Then, using these percentage inhibitions, EOB (Excess Over Bliss) was determined to define the synergistic effects of drug combinations. Expected Bliss additivism score (E) was firstly determined by the equation: […]
For the combinations INT-767/Elafibranor, an additional total Bliss score was calculated by summation of all EOB. […]
The significance of the observed differences between INT-767/Elafibranor over the highest single agent was determined by a student's t-test. *: p<0.05; **: p<0.01; ***: p<0.001.

[2] = tested on: fibrosing NASH-model of rats fed a CDAA+1% cholesterol diet; experiment: Hepatic collagen content (hydroxyproline, QuickZyme) in CDAA+1% cholesterol model; format: in vivo, Wistar rats; settings: Percentage over the untreated CDAA + 1% cholesterol rats; 12 weeks; GFT505 3 mg/kg/d, OCA 10 mg/kg/d, or GFT505 + OCA; mean ± SD
Procedure: (§1) The preventive effects of Elafibranor (GFT505) alone, OCA alone and the combination of both were assessed in a fibrosing NASH-model of rats fed a CDAA+1% cholesterol diet. 150-175 g male Wistar rats were fed a control (CSAA) diet, CDAA+1% cholesterol diet, or CDAA+1% cholesterol diet supplemented with Elafibranor 1, 3 and 10 mg/kg/day, OCA 10 and 30 mg/kg/day or combined drugs (Elafibranor 1, 3 and 10 mg/kg/day combined to OCA 10 mg/kg/day) for 12 weeks.
(§2) The body weight and the food intake were monitored twice per week. On the last day of treatment, rats were sacrificed after a 6 h fasting period. The liver was rapidly excised for biochemical and histological studies.
The hepatic collagen content was determined using the appropriate QuickZyme kit (Total collagen assay, cat # QZB-totcol2). The assay is based on the detection of hydroxyproline, which is a non-proteinogenic amino acid mainly found in the triple helix of collagen. Thus, hydroxyproline in tissue hydrolysates can be used as a direct measure of the amount of collagen present in the tissue (without discrimination between procollagen, mature collagen and collagen degradation products). Complete hydrolysis of tissue samples in 6M HCl at 95° C. is required before dosing the hydroxyproline. The assay results in the generation of a chromogen with a maximum absorbance at 570 nm. Results are expressed as mg of collagen/g of liver.

[3] = tested on: genes involved in tissue remodeling and inflammation (αSMA (ACTA2), TIMP1, TGFB1, CCR5) in CDAA/chol fed rat livers; experiment: Hepatic gene expression analysis (quantitative PCR) in CDAA+1% cholesterol model; format: in vivo, Wistar rats; settings: liver; Percentage over the untreated CDAA + 1% cholesterol rats; 12 weeks; GFT505 3 mg/kg/d, OCA 10 mg/kg/d, or GFT505 + OCA
Procedure: as §1, §2
Total RNA was isolated from rat livers using RNeasy Mini Kit (Qiagen) following manufacturer's instructions. Total RNA were reverse transcribed into cDNA using M-MLV RT (Moloney Murine Leukemia Virus Reverse Transcriptase) (Invitrogen cat #28025) in 1× RT buffer (Invitrogen), 0.5 mM DTT (Invitrogen), 0.18 mM dNTPs (Promega), 200 ng pdN6 (Amersham) and 30 U of RNase inhibitor (Promega).
Quantitative PCR was then carried out using the CFX96 Touch™ Real-Time PCR Detection System (Biorad). Briefly, the PCR reactions were performed in 96-WP format in 25 μl of total volume containing 1 μL of reverse transcription reaction, 0.5 μL of reverse and forward primers (10 pmol each), and 12.5 μl of 2× iQ SYBR Green Supermix (BioRad), using the following primer sequences:
Expression levels were normalized using the expression of Rplp0 gene as a reference in samples. For each gene, the standard curves were drawn by selecting the best points (at least three points) in order to have PCR reaction efficiency close to 100% and a correlation coefficient close to 1. Expression levels were determined using the standard curve equation for both the housekeeping gene and the target gene (taking into account the specific PCR efficiency of each target gene).

[4] = tested on: fibrosing NASH-model of rats fed a CDAA+1% cholesterol diet; experiment: Liver histology (picrosirius fibrosis surface, NASH lesions) in chronic CDAA+1% cholesterol model (12 weeks); format: in vivo, Wistar rats
Procedure: as §1, §2
The liver slices were first fixed for 12 hours in formalin 4% solution. Then, the liver pieces were washed 30 minutes in PBS, and dehydrated in ethanol solutions (successive baths at 70, 80, 95 and 100% ethanol). The liver pieces were incubated in three different baths of Xylene (Sigma-Aldrich cat #534056), followed by two baths in liquid paraffin (56° C.). Liver pieces were then put into racks that were gently filled with Histowax® to completely cover the tissue. The paraffin blocks containing the tissue pieces were removed from the racks and stored at room temperature. The liver blocks were cut into […] slices.
Liver sections were deparaffinized, rehydrated and incubated for 15 minutes in a solution of Fast Green FCF 0.1% (Sigma-Aldrich, cat # F7258) before rinsing in a bath of 0.5% acetic acid (Panreac, cat #131008.1611). […]
A technician blinded to the source of each liver specimen performed histological examinations. […] Briefly, steatosis, lobular inflammation and hepatocytes ballooning were scored. […]
Using Quant Center software (3D Histech, including Pattern Quant and Histo Quant modules), collagen-stained areas were quantified. […] The fibrosis area was then expressed as the percentage of the collagen surface to the whole tissue per animal.

| Compound | antifibrotic activity (α-SMA inhibition), in words ([1]; 1.9 μM of INT-767 alone) | inhibition at 30 µM ([1]; Homo sapiens, highest dose of INT-767 tested, 30 μM, read-out: α-SMA production inhibition over TGFβ1 control) [%] | Hepatic collagen content [2] | CCR5 mRNA level (marker of inflammation) [3] | TGFβ1 mRNA level [3] | TIMP1 mRNA level [3] | α-SMA mRNA level [3] | effects on ballooning and lobular inflammation, in words ([4]; CDAA/chol diet-induced NASH model) | effect on fibrosis development, in words (FIGS. 1-2) ([4]; CDAA/chol fed rats, 12 weeks, fibrosis surface and hepatic collagen) | Fibrosis surface ([4]; Percentage over the untreated CDAA + 1% cholesterol rats, 12 weeks in diet, GFT505 3 mg/kg/d, OCA 10 mg/kg/d, or GFT505 + OCA, mean ± SD) |
| --- | --- | --- | --- | --- | --- | --- | --- | --- | --- | --- |
| CC[C@H]1[C@@H](O)[C@@H]2[C@H](CC[C@]3(C)[C@@H]([C@H](C)CCOS(=O)(=O)[O-])CC[C@@H]23)[C@@]2(C)CC[C@@H](O)C[C@@H]12.[Na+] [INT-767] | does not show any antifibrotic activity | 13 | – | – | – | – | – | – | – | – |
| CC[C@H]1[C@@H](O)[C@@H]2[C@H](CC[C@]3(C)[C@@H]([C@H](C)CCC(=O)O)CC[C@@H]23)[C@@]2(C)CC[C@@H](O)C[C@@H]12 [OCA, 6α-ethyl chenodeoxycholic acid] | – | – | 67% ± 23% | 81% ± 28% | 110% ± 23% | 110% ± 43% | 109% ± 68% | rather modest | does not attenuate fibrosis in a significant manner | 74% ± 45% |
